Results taken from patent publication EP0411111B1, “AMMONIUM COMPOUND, COMPOSITION CONTAINING IT AND DESINFECTION METHOD” (FABRICOM AIR CONDITIONING S.A., priority 1989, dated 1990).

Assays:
[1] = system: Trichophyton rubrum; experiment: fungicidal test on fungal strains found around pools; format: cell-based; conditions: in 24 heures; dissolved in water at a concentration below 50 ppm with 30 ppm Cu and 100 ppb Ag
[2] = system: Chrysosporium Keratinophilium; experiment: as above; format: cell-based; conditions: in 24 heures; dissolved in water at a concentration below 50 ppm with 30 ppm Cu and 100 ppb Ag

With `CCCCCCCCCCCCCCCC[N+](C)(C)CCCCCC[N+](C)(C)c1ccc(NC(=N)NC(=N)Nc2ccc([N+](C)(C)CCCCCC[N+](C)(C)CCCCCCCCCCCCCCCC)cc2)cc1` [exemple 30] the action fongicide [1] was “action fongicide” and the action fongicide [2] was “action fongicide”.
